Data taken from paper PMC8839615 (Molecules, 2022).
Where a name gives a salt, the structure may show the parent alone.

How the values were obtained:
[1] = Pharmacokinetics study in rats after oral administration (plasma, LC-MS/MS); assay type: in vivo, Wistar rats; conditions: for CLZ / Cmax / VZ / half-life: mean ± SD, n = 6; for half-life: po
Experimental: The liquid chromatographic separation process was operated on an XR LC-20AD Prominence^TM UFLC system (Shimadzu, Japan). At a column temperature at 40 °C, substances were analyzed on an Atlantis T3 (2.1 × 150 mm, 3 μm) column. The mobile phase system was water with 0.1% formic acid (A) and methanol with 0.1% formic acid (B). A flow rate of 0.4 mL/min and sample injection volume of 5 μL were used for gradient elution. The gradient elution program was established as follows: 0.01–0.3 min, 5% B; 0.3–0.8 min, 5–50% B; 0.8–1.5 min, 50–70% B; 1.5–2.8 min, 70–85% B; 2.8–5.0 min, 85% B; 5.0–5.01 min, 85–5% B; and 5.01–7.0 min, 5% B.
Mass spectrometry quantitative analysis was conducted on a Q TRAP 4000 MS/MS system to collect data, and then analyst software (version 1.6, AB Sciex, Framingham, MA, USA) was used to handle data. In the MRM mode and taking nitrogen as the circulating gas, electrospray positive ionization (ESI+) was used to analyze four substances. The detailed MS parameters were established as follows: gas 1, 50 psi; gas 2, 40 psi; air curtain gas, 40 psi; ion spray voltage, 5500 V; ion source temperature, 500 °C. Declustering potential (DP), entrance potential (EP), collision energy (CE), and cell exit potential (CXP) were performed as parameters optimized for substances in the MRM mode.
(§1) The plasma and urine samples were kept at indoor temperature and dissolved before analysis. First, 100 µL of sample was added to a 1.5 mL Eppendorf tube together with 10 µL of ISs solution. Then, 300 µL of methanol:acetonitrile (1:1, v/v) was added, vortexed for 3 min, sonicated for 2 min in an ice-water bath, and centrifuged for 8 min at 16,000 rpm to deposit protein. The supernatant was transferred to a 1.5 mL Eppendorf tube, desiccated under airflow at room temperature, re-dissolved in 50 μL methanol, vortexed for 3 min, sonicated for 5 min in an ice-water bath, and centrifuged for 8 min at 16,000 rpm for LC-MS/MS analysis. For tissue and fecal samples, 100 mg of each sample was precisely weighed and added to a 5 mL Eppendorf tube, then mixed with 1 mL normal saline. The tissue cells were destructed by homogenization to mix with normal saline sufficiently, and the homogenization was achieved after centrifugation for 10 min at 4000 rpm. The methods to precipitate the protein of tissue and feces homogenization were the same as those of the plasma samples.
Eighteen male Wistar rats were separated into three groups with six rats in every group based on different oral medicines, containing a β-CD-DM group (inclusion compounds of DM with β-CD), DM group (single DM), and β-CD group (single β-CD). Each rat was administered to orally, and the dosage of every group was computed by the equal transformation of human and rat surface area of the body by the clinical dosage; therefore, 6 mg/kg of the β-CD-DM group (DM:β-CD(6 mg/kg:393 mg/kg) mixed evenly), 6 mg/kg of the DM group, and 393 mg/kg of the β-CD group were obtained. Blood samples (250 μL) were obtained from the orbital venous plexus at 0, 0.083, 0.25, 0.5, 0.75, 1, 1.5, 2, 4, 6, 8, 12, 24, 36 h after oral delivery. Then, the blood was centrifuged for 10 min at 4000 rpm to obtain the separation of plasma, and the plasma was stored in at −80 ℃ before application. The plasma samples of the rats in each group were treated according to the contents of Section 2.4.1, and then analyzed according to Section 2.2.1. The plasma concentrations of β-CD, DM, ginsenoside Re (IS 1), and psoralen (IS 2) were calculated by the ratio of peak area between analytes and internal standards. The pharmacokinetic parameters of the three groups of analytes were handled by adopting pharmacokinetic software DAS 2.1 found on non-compartment analysis. Then, the obtained main pharmacokinetic parameters of every group were used for independent sample T-test with SPSS v24.0; p < 0.05 was considered as a difference, and p < 0.01 was considered as a significant difference.

[2] = cited from earlier work
[3] = Tissue distribution study of β-CD in rats; assay type: in vivo, Wistar rats
Experimental: as §1, with “The methods to precipitate the protein of tissue and feces homogenization were the same as those of the plasma samples.” left out
Eighteen male Wistar rats were separated into three groups with six rats in every group based on different times after administration, containing group A (30 min after oral administration), group B (1h after oral administration), and group C (4 h after oral administration). […] The tissue homogenization samples of the rats in each group were treated according to the contents of Section 2.4.1, and then analyzed according to Section 2.2.1.

[4] = analyte DM in rat plasma, DM group (single DM), 6 mg/kg oral
[5] = analyte DM in rat plasma, β-CD-DM group (inclusion compounds, DM:β-CD 6 mg/kg:393 mg/kg) oral
[6] = analyte β-CD in rat plasma, β-CD group (single β-CD), 393 mg/kg oral
[7] = analyte β-CD in rat plasma, β-CD-DM group (inclusion compounds, DM:β-CD 6 mg/kg:393 mg/kg) oral

COc1ccc2c(c1)[C@]13CCCC[C@@H]1[C@H](C2)N(C)CC3 [DM, Dextromethorphan hydrobromide, reference compound]
CLZ [1, 4]: 6.55 × 10^1 ± 8.60 L/h/Kg
Cmax [1, 4]: 2.91 × 10^1 ± 3.17 ng/mL/h
VZ [1, 4]: 1640 ± 996 L/kg
CLZ [1, 5]: 44.1 ± 12.5 L/h/kg
Cmax [1, 5]: 3.27 × 10^1 ± 4.67 ng/mL/h
VZ [1, 5]: 1900 ± 643 L/kg
half-life ([1]; male, Wistar, rat, in vivo, 6 mg/kg, analyte DM in rat plasma, DM group (single DM), 6 mg/kg oral): 16.8 h
half-life ([1]; male, Wistar, rat, in vivo, 6 mg/kg, analyte DM in rat plasma, β-CD-DM group (inclusion compounds, DM:β-CD 6 mg/kg:393 mg/kg) oral): 30.4 h
water solubility [2]: poorly water-soluble

OC[C@H]1O[C@@H]2O[C@H]3[C@H](O)[C@@H](O)[C@@H](O[C@H]4[C@H](O)[C@@H](O)[C@@H](O[C@H]5[C@H](O)[C@@H](O)[C@@H](O[C@H]6[C@H](O)[C@@H](O)[C@@H](O[C@H]7[C@H](O)[C@@H](O)[C@@H](O[C@H]8[C@H](O)[C@@H](O)[C@@H](O[C@H]1[C@H](O)[C@H]2O)O[C@@H]8CO)O[C@@H]7CO)O[C@@H]6CO)O[C@@H]5CO)O[C@@H]4CO)O[C@@H]3CO [β-CD, β-cyclodextrin]
CLZ [1, 6]: 32.7 ± 10.2 L/h/kg
VZ [1, 6]: 400 ± 176 L/kg
CLZ [1, 7]: 3.03 × 10^1 ± 6.18 L/h/Kg
VZ [1, 7]: 354 ± 71.6 L/kg
half-life ([1]; male, Wistar, rat, plasma, 393 mg/kg, analyte β-CD in rat plasma, β-CD group (single β-CD), 393 mg/kg oral): 8.33 ± 2.46 h
half-life ([1]; male, Wistar, rat, plasma, 393 mg/kg, analyte β-CD in rat plasma, β-CD-DM group (inclusion compounds, DM:β-CD 6 mg/kg:393 mg/kg) oral): 8.21 ± 1.47 h
concentration at 30 min ([1]; male, Wistar, rat, plasma, 30 min after oral administration, 393 mg/kg, read-out: concentration of β-CD in rat plasma): ~3500 ng/mL
concentration at 1 h ([1]; male, Wistar, rat, plasma, 1 h after oral administration, 393 mg/kg, tissue concentration similar, read-out: concentration of β-CD in rat plasma): ~3000 ng/mL
AUC0–t as share of AUC0–∞ ([1]; β-CD in rat plasma, oral, sampling to 36 h): more than 96%
time until almost wholly removed from rat plasma ([1]; β-CD, oral administration): ≤ 36 h
time at which concentration in entire tissues reached its peak ([3]; 393 mg/kg single oral, heart, liver, spleen, lung, kidney, sampled 30 min, 1 h, 4 h): 1 h
accumulation in tissues ([3]; 4 h after 393 mg/kg single oral, tissue concentration decreased significantly): without noticeable accumulation
